Patent US12331033B2, “Inhibitors of SARM1” (Disarm Therapeutics, Inc., priority 2020, dated 2025)

What follows are molecules tested against SARM1 (ARM-SAM-TIR) (Homo sapiens (Human), UniProt Q6SZW1) (assay: ARM-SAM-TIR SARM1 IC50 assay (NADase activity, NAD+ cleavage, RapidFire MS)). Details: ARM-SAM-TIR lysate 5 μg/mL, 2 h pre-incubation, 5 μM NAD+, 2 hr room temperature.
Assay type: biochemical
Procedure: This Example describes an assay of ARM-SAM-TIR NADase activity and use of this assay to measure the efficacy of compounds of Formula I or Formula I′ to block SARM1 mediated NAD+ cleavage. This assay was optimized in such a way as to characterize the efficacy of the compounds in Formula I or Formula I′ to inhibit SARM1 activity and to calculate an IC50 value for each compound. This assay makes use of full length SARM1, which encompasses the ARM, SAM and TIR domains.
NRK1-HEK293T cells were seeded onto 150 cm^2 plates at 20×10^6 cells per plate. The next day, the cells were transfected with 15 μg ARM-SAM-TIR expression plasmid, SEQ ID NO: 1.
The cultures were supplemented with 1 mM NR at time of transfection to minimize toxicity from ARM-SAM-TIR overexpression. Forty-eight hours after transfection, cells were harvested, pelleted by centrifugation at 1,000 rpm (Sorvall ST 16R centrifuge, Thermo Fisher), and washed once with cold PBS (0.01 M phosphate buffered saline NaCl 0.138 M; KCl 0.0027 M; pH 7.4). The cells were resuspended in PBS with protease inhibitors (cOmplete™ protease inhibitor cocktail, Roche product #11873580001) and cell lysates were prepared by sonication (Branson Sonifer 450, output=3, 20 episodes of stroke). The lysates were centrifuged (12,000×g for 10 min at 4° C.) to remove cell debris and the supernatants (containing ARM-SAM-TIR protein) were stored at −80° C. for later use in the in vitro ARM-SAM-TIR NADase assay (see below). Protein concentration was determined by the Bicinchoninic (BCA) method and used to normalize lysate concentrations.
The enzymatic assay was performed in a 384-well polypropylene plate in Dulbecco's PBS buffer in a final assay volume of 20 μL. ARM-SAM-TIR lysate with a final concentration of 5 μg/mL was pre-incubated with the respective compound at 1% DMSO final assay concentration over 2 h at room temperature. The reaction was initiated by addition of 5 μM final assay concentration of NAD+ as substrate. After a 2 hr room temperature incubation, the reaction was terminated with 40 μL of stop solution of 7.5% trichloroactetic acid in acetonitrile. The NAD+ and ADPR concentrations were analyzed by a RapidFire High Throughput Mass Spectrometry System (Agilent Technologies, Santa Clara, Calif.) using an API4000 triple quadrupole mass spectrometer (AB Sciex Framingham, Mass.).

Chain of SARM1 (ARM-SAM-TIR) (Q6SZW1 other isoform, or with tags, fused parts or gaps): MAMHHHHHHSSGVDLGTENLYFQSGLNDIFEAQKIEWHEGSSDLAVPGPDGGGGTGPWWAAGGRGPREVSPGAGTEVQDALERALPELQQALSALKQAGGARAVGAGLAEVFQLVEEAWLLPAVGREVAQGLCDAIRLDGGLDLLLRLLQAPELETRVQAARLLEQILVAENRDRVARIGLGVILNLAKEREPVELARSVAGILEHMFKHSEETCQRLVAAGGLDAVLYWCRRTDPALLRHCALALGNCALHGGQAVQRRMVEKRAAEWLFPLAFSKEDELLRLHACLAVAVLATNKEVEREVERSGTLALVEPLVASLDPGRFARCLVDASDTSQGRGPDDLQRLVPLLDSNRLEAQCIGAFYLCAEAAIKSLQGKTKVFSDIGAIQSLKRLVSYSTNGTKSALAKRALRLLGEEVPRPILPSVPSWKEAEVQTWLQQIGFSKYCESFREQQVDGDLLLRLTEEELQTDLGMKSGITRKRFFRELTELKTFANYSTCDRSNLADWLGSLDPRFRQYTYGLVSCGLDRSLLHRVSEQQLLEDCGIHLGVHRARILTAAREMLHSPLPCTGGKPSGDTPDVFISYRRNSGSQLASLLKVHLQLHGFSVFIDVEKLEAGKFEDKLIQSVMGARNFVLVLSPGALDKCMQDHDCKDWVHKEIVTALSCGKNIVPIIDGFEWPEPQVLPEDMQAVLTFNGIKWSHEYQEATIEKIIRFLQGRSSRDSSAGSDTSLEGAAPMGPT

Compound | IC50
CC(C)(C)c1ccc(CCC(=O)Nc2nnc(-c3ccncc3)[nH]2)cc1 [Example 78] | 5 to 15 µM
N#Cc1ccc(CC(=O)Nc2nnc(-c3ccncc3)[nH]2)cc1 [Example 79] | 5 to 15 µM
O=C(CN1C(=O)COc2ccccc21)Nc1nnc(-c2ccncc2)[nH]1 [Example 80] | 15 to 30 µM
O=C(CCc1ccc(Cl)s1)Nc1nnc(-c2ccncc2)[nH]1 [Example 81] | < 5 µM
N[C@H](Cc1ccc(Cl)cc1)C(=O)Nc1nnc(-c2ccncc2)[nH]1 [Example 82] | < 5 µM
Cc1ccc(CCC(=O)Nc2nnc(-c3ccncc3)[nH]2)cn1 [Example 83] | 5 to 15 µM
O=C(CCc1ccc(Cl)nc1)Nc1nnc(-c2ccncc2)[nH]1 [Example 84] | < 5 µM
O=C(CCc1ccc(C(F)(F)F)cn1)Nc1nnc(-c2ccncc2)[nH]1 [Example 85] | 5 to 15 µM
O=C(CCc1ccc(C(F)(F)F)nc1)Nc1nnc(-c2ccncc2)[nH]1 [Example 86] | < 5 µM
O=C(CCc1cnc(C(F)(F)F)nc1)Nc1nnc(-c2ccncc2)[nH]1 [Example 87] | < 5 µM
O=C(Nc1nnc(-c2ccncc2)[nH]1)[C@H]1CCc2ccccc2C1 [Example 88] | < 5 µM
O=C(Nc1nnc(-c2ccncc2)[nH]1)[C@@H]1CCc2ccccc2C1 [Example 89] | 5 to 15 µM
O=C(C[C@H]1CCCc2ccccc21)Nc1nnc(-c2ccncc2)[nH]1 [Example 90] | < 5 µM
O=C(C[C@@H]1CCCc2ccccc21)Nc1nnc(-c2ccncc2)[nH]1 [Example 91] | < 5 µM
O=C(NCc1ccc(Cl)cc1)Nc1nnc(-c2ccncc2)[nH]1 [Example 92] | < 5 µM
C[C@@H](CC(=O)Nc1nnc(-c2ccncc2)[nH]1)c1ccccc1 [Example 93] | 15 to 30 µM
C[C@H](CC(=O)Nc1nnc(-c2ccncc2)[nH]1)c1ccccc1 [Example 94] | 15 to 30 µM
CC(Cc1ccccc1)C(=O)Nc1nnc(-c2ccncc2)[nH]1 (stereo not shown) [Example 95] | 5 to 15 µM
CC(C)(Cc1ccccc1)C(=O)Nc1nnc(-c2ccncc2)[nH]1 [Example 96] | 5 to 15 µM
O=C(CCc1ccc(C(F)F)cc1)Nc1nnc(-c2ccncc2)[nH]1 [Example 97] | < 5 µM
CN(C(=O)CCc1ccccc1)c1nnc(-c2ccncc2)[nH]1 [Example 98] | 5 to 15 µM
O=C(CCc1ccc(Cl)cc1)Nc1ncc(-c2ccncc2)s1 [Example 99] | 5 to 15 µM
O=C(CCc1ccc(Cl)cc1)Nc1nnc(-c2ccncc2)o1 [Example 100] | > 30 µM
O=C(CCc1ccc(Cl)c(Cl)c1)Nc1nnc(-c2ccncc2)[nH]1 [Example 101] | < 5 µM
O=C(COc1ccc(Cl)cc1)Nc1nnc(-c2ccncc2)[nH]1 [Example 102] | 5 to 15 µM
O=C(Nc1nnc(-c2ccncc2)[nH]1)[C@@H]1C[C@@H]1c1ccccc1 [Example 103] | 15 to 30 µM
O=C(Nc1nnc(-c2ccncc2)[nH]1)[C@@H]1C[C@H]1c1ccccc1 [Example 104] | 5 to 15 µM

Compound | IC50
O=C(CCc1ccc(Br)cc1)Nc1nnc(-c2ccncc2)[nH]1 [Example 105] | < 5 µM
O=C(CCc1ccc(Cl)cn1)Nc1nnc(-c2ccncc2)[nH]1 [Example 106] | < 5 µM
COc1ccccc1CCC(=O)Nc1nnc(-c2ccncc2)[nH]1 [Example 107] | < 5 µM
COc1cccc(CCC(=O)Nc2nnc(-c3ccncc3)[nH]2)c1 [Example 108] | 5 to 15 µM
O=C(CC1CCOc2ccccc21)Nc1nnc(-c2ccncc2)[nH]1 (stereo not shown) [Example 109] | < 5 µM
Cn1nc(-c2ccncc2)nc1NC(=O)CCc1ccccc1 [Example 110] | > 30 µM
Cn1nc(NC(=O)CCc2ccccc2)nc1-c1ccncc1 [Example 111] | > 30 µM
O=C(CCc1ccncc1)Nc1nnc(-c2ccncc2)[nH]1 [Example 112] | 15 to 30 µM
O=C(CCc1ccc(F)cc1Cl)Nc1nnc(-c2ccncc2)[nH]1 [Example 113] | < 5 µM
O=C(CCc1ccc(Cl)cc1)Nc1cc(-c2ccncc2)[nH]n1 [Example 114] | < 5 µM
O=C(CCc1ccc(Cl)cc1)Nc1nnc(-c2ccncc2)s1 [Example 115] | > 30 µM
O=C(Nc1nnc(-c2ccncc2)[nH]1)C1Cc2ccccc2C1 [Example 116] | 5 to 15 µM
O=C(CC1CCc2ccccc21)Nc1nnc(-c2ccncc2)[nH]1 (stereo not shown) [Example 117] | < 5 µM
O=C(CCc1c(F)c(F)c(F)c(F)c1F)Nc1nnc(-c2ccncc2)[nH]1 [Example 118] | < 5 µM
N#Cc1ccc(CCC(=O)Nc2nnc(-c3ccncc3)[nH]2)cc1 [Example 119] | < 5 µM
O=C(CCc1ccc(OC(F)(F)F)cc1)Nc1nnc(-c2ccncc2)[nH]1 [Example 120] | < 5 µM
CC(C)(CC(=O)Nc1nnc(-c2ccncc2)[nH]1)c1ccccc1 [Example 121] | 15 to 30 µM
Cn1c(CCC(=O)Nc2nnc(-c3ccncc3)[nH]2)nc2ccccc21 [Example 122] | 15 to 30 µM
O=C(CCc1cn2ccccc2n1)Nc1nnc(-c2ccncc2)[nH]1 [Example 123] | 15 to 30 µM
O=C(CCc1ccc(C(F)(F)F)cc1)Nc1nnc(-c2ccncc2)[nH]1 [Example 124] | < 5 µM
O=C(CCc1ccc(F)cc1)Nc1nnc(-c2ccncc2)[nH]1 [Example 125] | < 5 µM
CS(=O)(=O)c1ccc(CCC(=O)Nc2nnc(-c3ccncc3)[nH]2)cc1 [Example 126] | 15 to 30 µM
COc1ccc(CCC(=O)Nc2nnc(-c3ccncc3)[nH]2)cc1 [Example 127] | < 5 µM
Cn1ccnc1CCC(=O)Nc1nnc(-c2ccncc2)[nH]1 [Example 128] | > 30 µM
Cc1ccc(CCC(=O)Nc2nnc(-c3ccncc3)[nH]2)c(C)c1 [Example 129] | < 5 µM
O=C(CCc1ccc2ccccc2c1)Nc1nnc(-c2ccncc2)[nH]1 [Example 130] | > 30 µM
O=C(Nc1nnc(-c2ccncc2)[nH]1)C1CCc2ccccc2C1 (stereo not shown) [Example 131] | < 5 µM

Compound | IC50
O=C(CC1CCCc2ccccc21)Nc1nnc(-c2ccncc2)[nH]1 (stereo not shown) [Example 132] | < 5 µM
Cn1cc(CCC(=O)Nc2nnc(-c3ccncc3)[nH]2)cn1 [Example 133] | > 30 µM
O=C(CCC1CCCCC1)Nc1nnc(-c2ccncc2)[nH]1 [Example 134] | 5 to 15 µM
O=C(Nc1nc(-c2ccncc2)n[nH]1)c1ccccc1 [Example 135] | 5 to 15 µM
O=C(CCc1ccc(Cl)cc1)Nc1nnc(-c2ccncc2)[nH]1 [Example 136] | < 5 µM
O=C(CCc1cccc(Cl)c1)Nc1nnc(-c2ccncc2)[nH]1 [Example 137] | < 5 µM
O=C(CCc1ccccc1Cl)Nc1nnc(-c2ccncc2)[nH]1 [Example 138] | < 5 µM
Cc1ccc(CCC(=O)Nc2nnc(-c3ccncc3)[nH]2)cc1 [Example 139] | < 5 µM
Cc1cccc(CCC(=O)Nc2nnc(-c3ccncc3)[nH]2)c1 [Example 140] | < 5 µM
Cc1ccccc1CCC(=O)Nc1nnc(-c2ccncc2)[nH]1 [Example 141] | < 5 µM
O=C(CCCc1ccccc1)Nc1nnc(-c2ccncc2)[nH]1 [Example 142] | 5 to 15 µM
O=C(Cc1ccccc1)Nc1nnc(-c2ccncc2)[nH]1 [Example 143] | 15 to 30 µM
CC(=O)Nc1nnc(-c2ccncc2)[nH]1 [Example 144] | > 30 µM
O=C(COc1ccccc1)Nc1nnc(-c2ccncc2)[nH]1 [Example 145] | > 30 µM
O=C(CCc1ccccc1)Nc1nnc(-c2ccncc2)[nH]1 [Example 146] | < 5 µM
Nc1nnc(-c2ccncc2)[nH]1 [Example 147] | > 30 µM
Cc1ccc(OCC(=O)Nc2nnc(-c3ccncc3)[nH]2)c(C)c1 [Example 149] | 15 to 30 µM
[2H]C([2H])([2H])c1c(-c2ccncc2)n[nH]c1NC(=O)C([2H])([2H])C([2H])([2H])c1ccc(Cl)nc1 [Example 150] | < 5 µM
Cc1c(-c2ccncc2)n[nH]c1NC(=O)CCc1cnc(Cl)c(F)c1 [Example 151] | < 5 µM
Cc1c(-c2ccnnc2)n[nH]c1NC(=O)CCc1ccc(Cl)s1 [Example 152] | < 5 µM
Cc1c(-c2ccncc2)n[nH]c1NC(=O)CCc1ccc(F)nc1 [Example 153] | < 5 µM
Cc1c(-c2ccnnc2)n[nH]c1NC(=O)CCc1ccc(Cl)c(F)c1 [Example 154] | < 5 µM
Cc1c(-c2ccnnc2)n[nH]c1NC(=O)CCc1ccc(Cl)cc1 [Example 155] | < 5 µM
O=C(CCc1ccc(Cl)cc1)Nc1nnc(-c2ccncn2)[nH]1 [Example 156] | < 5 µM
O=C(CCc1ccc(Cl)cc1)Nc1nnc(-c2ccns2)[nH]1 [Example 157] | < 5 µM
